Series [1] in a line: Antiviral activity against Influenza A virus (A/California/07/2009(H1N1)). The format is functional.
A short description of series [2]: Antiviral activity against Influenza A virus (A/California/07/09(H1N1)) pdm09 infected in chicken erythrocytes incubated for 1 hr with supernatants from 1 hr compound pre-treated MDCK cells infected with Influenza A virus (A/California/07/2009(H1N1)) pdm09 for 48 hrs assessed as reduction in viral replication by hemagglutination assay. It is filed as functional, cell-based.

Series [3] can be described thus: Selectivity index, ratio of CC50 for MDCK cells to IC50 for Influenza A virus (A/California/07/09(H1N1)) pdm09. The format is functional.
Series [4] is described as follows: Cytotoxicity against MDCK cells assessed as reduction in cell viability after 48 hrs by MTT assay. As to conditions: dog. It is filed as toxicity, cell-based, Canis lupus familiaris. (In general: Formazan colour is commonly taken as a measure of viable cells.)

≈ marks a conversion by molar mass, not a printed value.

Usually IC50 stands for the concentration that gives 50% inhibition. What is called CC50 is the concentration that lowers cell viability or growth by half.

In series [1], `C=C(C)[C@@H]1CC=C(C)[C@@H](O)[C@@H]1O` returned a half-inhibitory concentration (IC50) of 20 µg/mL (≈ 119 µM).
Take `CC(N)C12CC3CC(CC(C3)C1)C2` (centres undefined) [RIMANTADINE]: in series [2], the IC50 is 44 µM. Moreover, the “Ratio CC50/IC50” value in series [3] is 8. Moreover, in series [4], the CC50 at 48 h came to 350 µM.

Source of the values: ChEMBL document CHEMBL3860052, “Anti-influenza activity of monoterpene-derived substituted hexahydro-2H-chromenes” (Bioorg Med Chem, 2016).
